Source: patent US20210070748A1, “INHIBITORS OF BRUTONS TYROSINE KINASE” (Pharmacyclics LLC, priority 2015, published 2021)
pIC50: −log10 of the molar value.

What was measured:
Type in all cases: biochemical
TEC = molecular target: T1, TEC (Homo sapiens, UniProt P42680); assay: Inhibition of a panel of kinases, in vitro HotSpot kinase assay: TEC; settings: D-compounds panel data; 1 μM ATP
T1 sequence (P42680 1-631): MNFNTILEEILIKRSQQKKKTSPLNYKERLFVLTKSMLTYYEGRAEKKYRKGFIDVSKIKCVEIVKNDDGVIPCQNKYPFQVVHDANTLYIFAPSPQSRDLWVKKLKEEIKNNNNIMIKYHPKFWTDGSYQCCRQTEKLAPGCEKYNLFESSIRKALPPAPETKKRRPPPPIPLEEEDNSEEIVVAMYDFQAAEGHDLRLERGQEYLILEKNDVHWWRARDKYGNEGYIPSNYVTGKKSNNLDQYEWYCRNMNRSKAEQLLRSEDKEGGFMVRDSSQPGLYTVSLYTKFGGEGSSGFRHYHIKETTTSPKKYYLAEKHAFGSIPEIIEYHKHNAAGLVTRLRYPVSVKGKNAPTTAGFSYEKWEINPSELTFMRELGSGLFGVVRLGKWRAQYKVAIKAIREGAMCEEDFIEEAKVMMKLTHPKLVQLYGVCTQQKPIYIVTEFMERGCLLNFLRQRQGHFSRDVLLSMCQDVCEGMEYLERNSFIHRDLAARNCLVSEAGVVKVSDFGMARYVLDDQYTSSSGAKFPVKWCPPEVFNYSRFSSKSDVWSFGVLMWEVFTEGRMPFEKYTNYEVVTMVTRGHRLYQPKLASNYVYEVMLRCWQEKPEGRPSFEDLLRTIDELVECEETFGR
Description: (§1) The degree of inhibition of a panel of kinases is determined using the in vitro HotSpot kinase assay (purified enzymes, ^33P-ATP, an appropriate substrate and 1 μM ATP).

LCK = LCK (Homo sapiens, UniProt P06239); assay: Inhibition of a panel of kinases, in vitro HotSpot kinase assay: LCK; settings: D-compounds panel data; 1 μM ATP; read-out: IC50 LCK
Sequence of LCK (P06239 whole entry): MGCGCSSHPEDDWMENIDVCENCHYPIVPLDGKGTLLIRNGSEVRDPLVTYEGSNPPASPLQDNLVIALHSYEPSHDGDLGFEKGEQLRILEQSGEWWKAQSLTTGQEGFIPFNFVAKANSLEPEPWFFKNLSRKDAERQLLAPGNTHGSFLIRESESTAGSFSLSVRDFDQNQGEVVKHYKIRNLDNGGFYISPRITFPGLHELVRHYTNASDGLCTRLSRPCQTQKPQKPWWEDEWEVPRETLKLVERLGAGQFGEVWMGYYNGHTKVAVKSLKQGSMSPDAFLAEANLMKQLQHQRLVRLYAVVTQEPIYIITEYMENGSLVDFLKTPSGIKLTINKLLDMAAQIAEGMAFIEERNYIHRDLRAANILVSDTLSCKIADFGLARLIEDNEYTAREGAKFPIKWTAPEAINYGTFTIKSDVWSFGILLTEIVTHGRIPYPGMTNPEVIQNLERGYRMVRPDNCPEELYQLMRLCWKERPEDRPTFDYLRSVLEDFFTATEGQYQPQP

BTK-WT = molecular target: T2, BTK-WT (Homo sapiens, UniProt Q06187); assay: Btk in vitro inhibitory activity (one of Method A TR-FRET, Method B electrophoretic mobility shift, Method C radiometric filter binding); settings: D-compounds panel data; read-out: IC50 BTK-WT
T2 construct: purified from insect cells as a full-length construct containing an N-terminal 6X-His tag; His6 (N); made in house; host or cells: insect cells (baculovirus Sf21 in Method B)
T2 sequence (Q06187 whole entry): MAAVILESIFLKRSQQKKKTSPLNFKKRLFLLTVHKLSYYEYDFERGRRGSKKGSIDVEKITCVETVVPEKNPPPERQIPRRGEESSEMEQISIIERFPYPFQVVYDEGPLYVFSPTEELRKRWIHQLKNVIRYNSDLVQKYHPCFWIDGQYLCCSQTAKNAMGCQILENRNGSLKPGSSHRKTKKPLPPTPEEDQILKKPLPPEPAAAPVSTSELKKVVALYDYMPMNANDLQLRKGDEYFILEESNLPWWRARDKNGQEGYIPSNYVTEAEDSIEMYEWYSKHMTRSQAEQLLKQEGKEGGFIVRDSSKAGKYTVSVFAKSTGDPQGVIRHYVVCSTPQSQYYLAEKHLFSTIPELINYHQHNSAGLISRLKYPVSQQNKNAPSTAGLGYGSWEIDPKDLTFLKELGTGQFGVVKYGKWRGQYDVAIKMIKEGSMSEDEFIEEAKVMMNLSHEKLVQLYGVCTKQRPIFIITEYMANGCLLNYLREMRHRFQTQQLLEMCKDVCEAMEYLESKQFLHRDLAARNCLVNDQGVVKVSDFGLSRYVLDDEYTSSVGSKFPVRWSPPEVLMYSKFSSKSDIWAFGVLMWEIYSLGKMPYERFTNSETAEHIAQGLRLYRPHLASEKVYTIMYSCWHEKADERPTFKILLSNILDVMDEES

EGFR = EGFR (Homo sapiens, UniProt P00533); assay: Inhibition of a panel of kinases, in vitro HotSpot kinase assay: EGFR; settings: D-compounds panel data; 1 μM ATP
Sequence of EGFR (P00533 25-1210): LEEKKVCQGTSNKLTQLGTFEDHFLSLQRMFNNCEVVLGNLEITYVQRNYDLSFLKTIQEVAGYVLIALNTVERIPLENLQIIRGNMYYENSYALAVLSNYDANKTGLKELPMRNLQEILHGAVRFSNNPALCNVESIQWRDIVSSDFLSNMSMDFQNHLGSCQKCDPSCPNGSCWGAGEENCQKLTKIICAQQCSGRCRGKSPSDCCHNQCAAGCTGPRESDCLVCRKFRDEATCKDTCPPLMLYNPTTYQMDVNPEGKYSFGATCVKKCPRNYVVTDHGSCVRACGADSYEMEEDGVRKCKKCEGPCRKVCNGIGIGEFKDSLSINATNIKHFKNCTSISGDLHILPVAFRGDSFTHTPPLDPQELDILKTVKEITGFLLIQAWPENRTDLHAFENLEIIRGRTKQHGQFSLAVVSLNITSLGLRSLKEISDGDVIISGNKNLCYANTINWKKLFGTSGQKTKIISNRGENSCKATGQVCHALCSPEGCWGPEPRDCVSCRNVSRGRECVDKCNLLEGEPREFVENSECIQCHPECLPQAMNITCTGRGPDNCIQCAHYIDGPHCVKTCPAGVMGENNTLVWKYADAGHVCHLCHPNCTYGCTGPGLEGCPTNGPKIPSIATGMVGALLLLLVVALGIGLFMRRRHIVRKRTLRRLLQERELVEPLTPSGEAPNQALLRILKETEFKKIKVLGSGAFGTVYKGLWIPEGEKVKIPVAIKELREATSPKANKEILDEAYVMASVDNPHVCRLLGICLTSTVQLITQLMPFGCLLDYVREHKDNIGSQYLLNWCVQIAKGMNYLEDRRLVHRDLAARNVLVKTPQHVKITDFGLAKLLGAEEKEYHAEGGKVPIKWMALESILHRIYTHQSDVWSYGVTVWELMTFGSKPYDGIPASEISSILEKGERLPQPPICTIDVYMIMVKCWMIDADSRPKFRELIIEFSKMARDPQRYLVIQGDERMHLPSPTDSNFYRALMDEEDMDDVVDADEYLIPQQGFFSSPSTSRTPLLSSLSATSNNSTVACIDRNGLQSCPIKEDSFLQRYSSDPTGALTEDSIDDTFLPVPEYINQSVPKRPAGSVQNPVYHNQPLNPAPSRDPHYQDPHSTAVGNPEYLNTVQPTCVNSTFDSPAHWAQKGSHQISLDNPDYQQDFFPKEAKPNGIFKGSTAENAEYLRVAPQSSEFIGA
Description: as §1

SRC = SRC (Homo sapiens, UniProt P12931); assay: Inhibition of a panel of kinases, in vitro HotSpot kinase assay: SRC; settings: D-compounds panel data; 1 μM ATP
Sequence of SRC (P12931 whole entry): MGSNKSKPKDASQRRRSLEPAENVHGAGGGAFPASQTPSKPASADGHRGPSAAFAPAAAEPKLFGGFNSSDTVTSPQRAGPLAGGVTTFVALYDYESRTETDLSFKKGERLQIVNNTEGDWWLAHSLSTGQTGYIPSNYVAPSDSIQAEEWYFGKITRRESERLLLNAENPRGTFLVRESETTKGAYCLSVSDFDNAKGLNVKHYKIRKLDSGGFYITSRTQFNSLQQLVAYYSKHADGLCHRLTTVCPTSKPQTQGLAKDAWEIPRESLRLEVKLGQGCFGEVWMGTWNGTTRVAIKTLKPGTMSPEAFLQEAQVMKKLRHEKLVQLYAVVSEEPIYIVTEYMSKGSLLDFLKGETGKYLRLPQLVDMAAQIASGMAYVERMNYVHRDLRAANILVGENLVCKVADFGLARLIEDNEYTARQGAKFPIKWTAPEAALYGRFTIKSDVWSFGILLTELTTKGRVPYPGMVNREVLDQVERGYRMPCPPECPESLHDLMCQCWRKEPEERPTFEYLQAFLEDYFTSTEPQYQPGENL
Description: as §1

SMILES | pIC50 (TEC) | pIC50 (LCK) | pIC50 (BTK-WT) | pIC50 (EGFR) | pIC50 (SRC)
CN1CCN(C(=O)c2ccc(Nc3nc(N[C@H]4CC[C@H](NC(=O)N(C)C)CC4)cnc3C(N)=O)cc2)CC1 [Example D-69, 3-{[4-(4-methylpiperazine-1-carbonyl)phenyl]amino}-5-{[(1 r,4r)-4-[(dimethylcarbamoyl)amino]cyclohexyl]amino}pyrazine-2-carboxamide] | 5.00 to 6.00 | 7.00 to 8.00 | 7.00 to 8.00 | 6.00 to 7.00 | 6.00 to 7.00
CN1CCN(C(=O)c2ccc(Nc3nc(N[C@H]4CC[C@H](NC(=O)c5ccc(C6CC6)cc5F)CC4)cnc3C(N)=O)cc2)CC1 [Example D-70, 3-{[4-(4-methylpiperazine-1-carbonyl)phenyl]amino}-5-{[(1 r,4r)-4-(4-cyclopropyl-2-fluorobenzamido)cyclohexyl]amino}pyrazine-2-carboxamide] | 6.00 to 7.00 | 6.00 to 7.00 | 7.00 to 8.00 | 6.00 to 7.00 | 6.00 to 7.00
CN1CCN(C(=O)c2ccc(Nc3nc(N[C@H]4CC[C@@H](NC(=O)c5ccc(C6CC6)cc5F)CC4)cnc3C(N)=O)cc2)CC1 [Example D-71, 3-{[4-(4-methylpiperazine-1-carbonyl)phenyl]amino}-5-{[(1 s,4s)-4-(4-cyclopropyl-2-fluorobenzamido)cyclohexyl]amino}pyrazine-2-carboxamide] | 6.00 to 7.00 | 7.00 to 8.00 | 7.00 to 8.00 | 6.00 to 7.00 | 6.00 to 7.00
CN1CCN(C(=O)c2ccc(Nc3nc(N[C@H]4CC[C@@H](NC(=O)N(C)C)CC4)cnc3C(N)=O)cc2)CC1 [Example D-72, 3-{[4-(4-methylpiperazine-1-carbonyl)phenyl]amino}-5-{[(1s,4s)-4-[(dimethylcarbamoyl)amino]cyclohexyl]amino}pyrazine-2-carboxamide] | 5.00 to 6.00 | 7.00 to 8.00 | 7.00 to 8.00 | 5.00 to 6.00 | 6.00 to 7.00
C[C@@H]1[C@H](NC(=O)c2ccc(C3CC3)cc2F)CCCN1c1cnc(C(N)=O)c(Nc2ccc(N3CCOCC3)cc2)n1 [Example D-73, 5-[(2R,3R)-3-(4-cyclopropyl-2-fluorobenzamido)-2-methylpiperidin-1-yl]-3-{[4-(morpholin-4-yl)phenyl]amino}pyrazine-2-carboxamide] | 7.00 to 8.00 | 5.00 to 6.00 | ≥ 8.00 | 5.00 to 6.00 | 6.00 to 7.00
Cc1cc(Nc2nc(N3C[C@H](NC(=O)N(C)C)CC[C@@H]3C)cnc2C(N)=O)sn1 [Example D-74, 5-[(2S,5R)-5-[(dimethylcarbamoyl)amino]-2-methylpiperidin-1-yl]-3-[(3-methyl-1,2-thiazol-5-yl)amino]pyrazine-2-carboxamide] | 5.00 to 6.00 | 6.00 to 7.00 | 6.00 to 7.00 | 6.00 to 7.00 | 5.00 to 6.00
Cc1cc(Nc2nc(N3C[C@@H](NC(=O)N(C)C)CC[C@H]3C)cnc2C(N)=O)sn1 [Example D-75, 5-[(2R,5S)-5-[(dimethylcarbamoyl)amino]-2-methylpiperidin-1-yl]-3-[(3-methyl-1,2-thiazol-5-yl)amino]pyrazine-2-carboxamide] | 6.00 to 7.00 | 6.00 to 7.00 | 7.00 to 8.00 | 6.00 to 7.00 | 6.00 to 7.00
Cc1cc(Nc2nc(N3C[C@@H](NC(=O)N(C)C)CC[C@@H]3C)cnc2C(N)=O)sn1 [Example D-76, 5-[(2S,5S)-5-[(dimethylcarbamoyl)amino]-2-methylpiperidin-1-yl]-3-[(3-methyl-1,2-thiazol-5-yl)amino]pyrazine-2-carboxamide] | 5.00 to 6.00 | < 5.00 | 6.00 to 7.00 | 5.00 to 6.00 | 5.00 to 6.00
Cc1cc(Nc2nc(N3C[C@H](NC(=O)N(C)C)CC[C@H]3C)cnc2C(N)=O)sn1 [Example D-77, 5-[(2R,5R)-5-[(dimethylcarbamoyl)amino]-2-methylpiperidin-1-yl]-3-[(3-methyl-1,2-thiazol-5-yl)amino]pyrazine-2-carboxamide] | 5.00 to 6.00 | 5.00 to 6.00 | 6.00 to 7.00 | 5.00 to 6.00 | 5.00 to 6.00
Cc1cc(Nc2nc(N3C[C@@H](NC(=O)c4ccc(C5CC5)cc4F)CC[C@@H]3C)cnc2C(N)=O)sn1 [Example D-78, 5-[(2S,5S)-5-(4-cyclopropyl-2-fluorobenzamido)-2-methylpiperidin-1-yl]-3-[(3-methyl-1,2-thiazol-5-yl)amino]pyrazine-2-carboxamide] | 5.00 to 6.00 | 6.00 to 7.00 | 6.00 to 7.00 | 6.00 to 7.00 | 6.00 to 7.00
Cc1cc(Nc2nc(N3C[C@H](NC(=O)c4ccc(C5CC5)cc4F)CC[C@H]3C)cnc2C(N)=O)sn1 [Example D-79, 5-[(2R,5R)-5-(4-cyclopropyl-2-fluorobenzamido)-2-methylpiperidin-1-yl]-3-[(3-methyl-1,2-thiazol-5-yl)amino]pyrazine-2-carboxamide] | < 5.00 | 5.00 to 6.00 | 6.00 to 7.00 | 5.00 to 6.00 | 5.00 to 6.00
Cc1cc(Nc2nc(N3C[C@@H](NC(=O)c4ccc(C5CC5)cc4F)CC[C@H]3C)cnc2C(N)=O)sn1 [Example D-80, 5-[(2R,5S)-5-(4-cyclopropyl-2-fluorobenzamido)-2-methylpiperidin-1-yl]-3-[(3-methyl-1,2-thiazol-5-yl)amino]pyrazine-2-carboxamide] | 5.00 to 6.00 | 6.00 to 7.00 | 7.00 to 8.00 | 6.00 to 7.00 | 6.00 to 7.00
C[C@@H]1[C@H](NC(=O)c2ccc(C3CC3)cc2)CCCN1c1cnc(C(N)=O)c(Nc2ccc(N3CCN(C)CC3)cc2)n1 [Example D-81] | 7.00 to 8.00 | 7.00 to 8.00 | ≥ 8.00 | 6.00 to 7.00 | 7.00 to 8.00
C[C@@H]1[C@H](NC(=O)c2ccc(C3CC3)cc2F)CCCN1c1cnc(C(N)=O)c(Nc2ccc(N3CCN(C)CC3)c(F)c2)n1 [Example D-82, 5-[(2R,3R)-3-(4-cyclopropyl-2-fluorobenzamido)-2-methylpiperidin-1-yl]-3-{[3-fluoro-4-(4-methylpiperazin-1-yl)phenyl]amino}pyrazine-2-carboxamide] | 7.00 to 8.00 | 7.00 to 8.00 | ≥ 8.00 | 6.00 to 7.00 | 7.00 to 8.00
C[C@@H]1[C@H](NC(=O)c2ccc(C3CC3)cc2)CCCN1c1cnc(C(N)=O)c(Nc2ccc3nccn3c2)n1 [Example D-83, 5-[(2R,3R)-3-(4-cyclopropylbenzamido)-2-methylpiperidin-1-yl]-3-({imidazo[1,2-a]pyridin-6-yl}amino)pyrazine-2-carboxamide] | 7.00 to 8.00 | 5.00 to 6.00 | 7.00 to 8.00 | < 5.00 | 6.00 to 7.00
C[C@@H]1[C@H](NC(=O)c2ccc(N(C)C)cn2)CCCN1c1cnc(C(N)=O)c(Nc2cnn(C)c2)n1 [Example D-84, 5-[(2R,3R)-3-[5-(dimethylamino)pyridine-2-amido]-2-methylpiperidin-1-yl]-3-[(1-methyl-1H-pyrazol-4-yl)amino]pyrazine-2-carboxamide] | ≥ 8.00 | 6.00 to 7.00 | ≥ 8.00 | 5.00 to 6.00 | 7.00 to 8.00
C[C@@H]1[C@H](NC(=O)c2ccc(-c3ncccn3)cc2)CCCN1c1cnc(C(N)=O)c(Nc2cnn(C)c2)n1 [Example D-85, 3-[(1-methyl-1H-pyrazol-4-yl)amino]-5-[(2R,3R)-2-methyl-3-[4-(pyrimidin-2-yl)benzamido]piperidin-1-yl]pyrazine-2-carboxamide] | ≥ 8.00 | 6.00 to 7.00 | ≥ 8.00 | 6.00 to 7.00 | 6.00 to 7.00
C[C@@H]1[C@H](NC(=O)c2cnc(C3CC3)nc2)CCCN1c1cnc(C(N)=O)c(Nc2cnn(C)c2)n1 [Example D-86, 5-[(2R,3R)-3-(2-cyclopropylpyrimidine-5-amido)-2-methylpiperidin-1-yl]-3-[(1-methyl-1H-pyrazol-4-yl)amino]pyrazine-2-carboxamide] | ≥ 8.00 | 7.00 to 8.00 | ≥ 8.00 | 5.00 to 6.00 | 7.00 to 8.00
C[C@@H]1[C@H](NC(=O)c2ccc(C(F)(F)F)cn2)CCCN1c1cnc(C(N)=O)c(Nc2cnn(C)c2)n1 [Example D-87, 3-[(1-methyl-1H-pyrazol-4-yl)amino]-5-[(2R,3R)-2-methyl-3-[5-(trifluoromethyl)pyridine-2-amido]piperidin-1-yl]pyrazine-2-carboxamide] | 7.00 to 8.00 | 6.00 to 7.00 | ≥ 8.00 | 6.00 to 7.00 | 7.00 to 8.00
